From ChEMBL document CHEMBL5500371, “Arginine and tryptophan-rich dendritic antimicrobial peptides that disrupt membranes for bacterial infection in vivo” (Eur J Med Chem, 2024) come the findings set out here.

The source made the active and inactive calls. The calls are words filed in the database; no cut-off is given here. Where a SMILES comes first, the peptide text is derived from it. Side-chain parts run from the residue outwards.

In data set [1] the test system is Escherichia coli. Nature of the data set: Antibacterial activity against Escherichia coli ATCC 25922 assessed as inhibition of bacterial growth incubated for 20 hrs in presence of FeCl3 by broth microdilution method (reference value: 8 microM). It is filed as functional. In general terms: In broth dilution the organism is exposed to a series of concentrations in liquid medium.

The test system of data set [2] is Staphylococcus aureus. Nature of the data set: Antibacterial activity against Staphylococcus aureus ATCC 25923 assessed as inhibition of bacterial growth incubated for 20 hrs in presence of KCl by broth microdilution method (reference value: 8 microM). It is filed as functional.
The subject of data set [3] is Escherichia coli. The data set is described as follows: […] activity against Escherichia coli ATCC 25922 infected in male BALB/c pulmonary infection model assessed as reduction in bacterial colonies at 5 to 10 mg/kg, ip administered at 3 and 12 hrs post infection and measured 24 hrs post infection. It is filed as functional, organism-based. To be noted: dose 5-10 mg/kg, time 12-21 hrs.

Data set [4] relates to Escherichia coli. Nature of the data set: Antibacterial activity against Escherichia coli ATCC 25922 assessed as inhibition of bacterial growth incubated for 20 hrs in presence of MgCl2 by broth microdilution method (reference value: 8 microM). It is filed as functional.
For data set [5], the system named is Staphylococcus aureus. Nature of the data set: Antibacterial activity against Staphylococcus aureus ATCC 25923 assessed as inhibition of bacterial growth incubated for 20 hrs in presence of ZnCl2 by broth microdilution method (reference value: 8 microM). It is filed as functional.
The test system of data set [6] is Staphylococcus aureus. Nature of the data set: Antibacterial activity against Staphylococcus aureus ATCC 25923 assessed as inhibition of bacterial growth incubated for 20 hrs in presence of NaCl by broth microdilution method (reference value: 8 microM). It is filed as functional.
The test system of data set [7] is Escherichia coli. The data set is described as follows: Antibacterial activity against Escherichia coli ATCC 25922 assessed as inhibition of bacterial growth incubated for 20 hrs in presence of FeCl3 by broth microdilution method (reference value: 16 microM). It is filed as functional.
Data set [8] concerns Staphylococcus aureus. Nature of the data set: Antibacterial activity against Staphylococcus aureus ATCC 25923 assessed as inhibition of bacterial growth upto 20 ug/ml pretreated with chymotrypsin for 6 hrs and measured after 18 hrs by absorbance based method. To be noted: dose <= 20.0 µg/ml, time 24.0 hrs. It is filed as functional, organism-based.
Data set [9] has as its system Escherichia coli. Nature of the data set: Additive antibacterial activity against rifampicin resistant Escherichia coli ATCC 25922 assessed as fractional inhibitory concentration index at 0.25 to 4 times MIC incubated for 20 hrs in presence of rifampicin by checkerboard assay. It is filed as functional.
The nature of data set [10]: Systemic toxicity in male BALB/c mouse assessed as renal cell necrosis at 109.31 mg/kg, ip administered as single dose by H and E staining based analysis. It is filed as organism-based. To be noted: in vivo.
The subject of data set [11] is Escherichia coli. The data set is described as follows: Additive antibacterial activity against Escherichia coli ATCC 25922 assessed as fractional inhibitory concentration index at 0.25 to 4 times MIC incubated for 20 hrs in presence of kanamycin by checkerboard assay. Format: functional.
In data set [12] the test system is Escherichia coli. Nature of the data set: Additive antibacterial activity against Escherichia coli ATCC 25922 assessed as fractional inhibitory concentration index at 0.25 to 4 times MIC incubated for 20 hrs in presence of gentamicin by checkerboard assay. Format: functional.
For data set [13], the system named is Escherichia coli. The data set is described as follows: Antibacterial activity against Escherichia coli ATCC 25922 assessed as inhibition of bacterial growth incubated for 20 hrs in presence of ZnCl2 by broth microdilution method (reference value: 16 microM). It is filed as functional.
Data set [14] relates to Staphylococcus aureus. Nature of the data set: Additive antibacterial activity against rifampicin resistant Staphylococcus aureus ATCC 25923 assessed as fractional inhibitory concentration index at 0.25 to 4 times MIC incubated for 20 hrs in presence of rifampicin by checkerboard assay. It is filed as functional.
Data set [15] is described as follows: Systemic toxicity in male BALB/c mouse assessed as lung inflammatory cell infiltration at 109.31 mg/kg, ip administered as single dose by H and E staining based analysis. It is filed as organism-based. To be noted: in vivo.
Data set [16] deals with Escherichia coli. Nature of the data set: Antibacterial activity against Escherichia coli ATCC 25922 assessed as inhibition of bacterial growth incubated for 20 hrs in presence of MgCl2 by broth microdilution method (reference value: 4 microM). It is filed as functional, organism-based.
In data set [17] the test system is Escherichia coli. Nature of the data set: Antibacterial activity against Escherichia coli ATCC 25922 assessed as inhibition of bacterial growth incubated for 20 hrs in presence of FeCl3 by broth microdilution method (reference value: 4 microM). It is filed as functional, organism-based.
In data set [18] the test system is Escherichia coli. The data set is described as follows: Antibacterial activity against Escherichia coli ATCC 25922 assessed as inhibition of bacterial growth incubated for 20 hrs in presence of ZnCl2 by broth microdilution method (reference value: 4 microM). Format: functional, organism-based.
The subject of data set [19] is Escherichia coli. The data set is described as follows: Resistant development in Escherichia coli assessed as increase in MIC at sub-MIC measured after 20 passages. Format: functional, organism-based.
For data set [20], the system named is Escherichia coli. Nature of the data set: Bactericidal activity against Escherichia coli ATCC 25922 assessed as elimination of bacteria at 2 times MIC measured after 1 hrs by time kill assay. It is filed as functional, organism-based.
For data set [21], the system named is Escherichia coli. Nature of the data set: Antibacterial activity against Escherichia coli ATCC 25922 assessed as inhibition of bacterial growth incubated for 20 hrs in presence of NaCl by broth microdilution method (reference value: 4 microM). Format: functional, organism-based.
Data set [22] relates to Staphylococcus aureus. The data set is described as follows: Resistant development in Staphylococcus aureus assessed as increase in MIC at sub-MIC measured after 20 passages. Format: functional, organism-based.
The test system of a further data set is Cell membrane. Nature of the data set: Induction of cell membrane damage in Escherichia coli assessed as PI uptake at 2 times MIC measured after 2 hrs by PI dye based flow cytometry analysis (reference value: 16.5%). It is filed as cell membranes.

Take `N=C(N)NCCC[C@H](NC(=O)[C@H](CCCNC(=N)N)NC(=O)[C@H](CCCNC(=N)N)NC(=O)[C@@H](N)CCCNC(=N)N)C(=O)N[C@@H](CCCCN)C(=O)N[C@@H](Cc1c[nH]c2ccccc12)C(=O)N[C@@H](Cc1c[nH]c2ccccc12)C(=O)N[C@@H](Cc1c[nH]c2ccccc12)C(=O)N[C@@H](Cc1c[nH]c2ccccc12)C(N)=O`: the MIC (commonly the lowest concentration that inhibits growth of the organism) was 16 µM in the data set with Escherichia coli [1]; 8 µM in the data set with Staphylococcus aureus [2]; 16 µM in the data set with Escherichia coli [4]; 8 µM with Staphylococcus aureus [5]; 8 µM in the data set with Staphylococcus aureus [6]. Moreover, the outcome with Escherichia coli [3] was Active.
In the case of `N=C(N)NCCC[C@H](NC(=O)[C@@H](N)CCCNC(=N)N)C(=O)NCCCC[C@H](NC(=O)[C@H](CCCNC(=N)N)NC(=O)[C@@H](N)CCCNC(=N)N)C(=O)N[C@@H](Cc1c[nH]c2ccccc12)C(=O)N[C@@H](Cc1c[nH]c2ccccc12)C(=O)N[C@@H](Cc1c[nH]c2ccccc12)C(=O)N[C@@H](Cc1c[nH]c2ccccc12)C(N)=O` (H-RRK([Arg-Arg])WWWW-NH2), the minimal inhibitory concentration (MIC) with Escherichia coli [7] was 16 µM; in the data set with Escherichia coli [13], 8 µM. The result in the data set on Staphylococcus aureus [8] was Active. In addition, the “fractional inhibitory concentration index (FICI)” value in the data set on Escherichia coli [9], in the data set with Escherichia coli [11], with Escherichia coli [12] and in the data set on Staphylococcus aureus [14] was 0.563 each time. Further, the Activity entry in data set [10] and in [15] was “Non-Toxic” throughout.
With POLYMYXIN B, the MIC with Escherichia coli [16] is 2 µM; in the data set with Escherichia coli [17], 4 µM; in the data set on Escherichia coli [18], 8 µM; in the data set on Escherichia coli [21], 4 µM. Further, the result in the data set on Escherichia coli [19] and in the data set with Staphylococcus aureus [22] was inactive. In addition, the Activity worked out at 100% in the data set with Escherichia coli [20] and 46.8% with Cell membrane.
